According to patent US11390606B2, “Pyridazinone compounds and uses thereof” (Edgewise Therapeutics, Inc., priority 2018, dated 2022):

Target: T1, skeletal myofibrils (Rabbit Psoas), myosin ATPase activity
T1 construct: Rabbit Psoas Prep 11 (0.25 mg/mL)
Assay: Skeletal Myofibril ATPase Assay
Type: biochemical
Settings: skeletal myofibrils (Rabbit Psoas 0.25 mg/mL), PK/LDH-coupled NADH absorbance at 340 nm
Protocol: Overview: Myosin ATPase activity is assessed by using a coupled reaction system, in which ADP generated by the myosin ATPase function is coupled to the disappearance of NADH through the pyruvate kinase/lactate dehydrogenase (PK-LDH) system. Myosin ATPase activity produces ADP, which is used as a substrate for PK to produce pyruvate and regenerate ATP. The pyruvate is then used as a substrate by LDH to oxidize NADH to NAD+. The rate of the reaction is monitored through the time-dependent disappearance of NADH using absorbance at 340 nm. Inhibition of ATPase activity by the assayed compounds is indicated by a reduced rate of NADH loss, relative to vehicle-treated controls, over the experimental time window. To assess the selectivity of the assayed compounds for skeletal myofibrils, the compounds are counter-screened in cardiac myofibrils.
Materials: The following stock solutions and reagents were used in the Skeletal Myofibril ATPase Assay:
Stock Solutions of pCa buffer. Combine PIPES, CaCl2, and EGTA solutions with 70 mL of water. Adjust pH to 7.0 and bring final volume to 100 mL.
Buffer A & Buffer B. Buffers were stored on ice until use.
Skeletal Myofibril ATPase Assay Procedure: BSA, ATP, NADH, PEP, and DTT solutions were thawed at room temperature, then transferred to ice. Pellet-frozen myofibrils were transferred with approximately twice the required volume into a sufficiently large tube and capped. Myofibrils were thawed by rolling in a water bath for approximately 15 min at room temperature and cooled on ice. Buffers A and B were prepared by adjusting volumes as necessary for required number of wells and stored on ice. 0.5 μL of the compounds to be assayed were added into wells. 25 μL of Buffer A was dispensed into the wells, followed by 25 μL of Buffer B. The wells were measured for absorbance at 340 nm, using a kinetic protocol in which the wells are read every 1.5-2 min for 45 min. The slope of the data was approximated by subtracting the minimum absorbance value from the maximum value for each well. This was accomplished either in the SoftMax Pro software or in a spreadsheet program such as Excel. Using GraphPad Prism 8.0, the data was normalized by assigning a value of 100% to the 1% DMSO vehicle wells. Typically, a normalized 0% value was simply assigned to a (Max−Min) value of 0. The normalized data was fit to a Four Parameter Logistic sigmoidal equation, constraining the bottom to be 0 or greater. Compounds of Table 1 to 4 were tested and results of the assay appear in Table 5 herein. A=IC50 is less than or equal to 10 μM; B=IC50 is greater than 10 μM and less than 100 μM; C=IC50 is greater than 100 μM.

| SMILES | IC50 [µM] |
| --- | --- |
| O=c1ccc(-c2ccc(OCC3(F)COC3)nc2)nn1Cc1ccc(Cl)cc1 [Compound 21, 2-(4-chlorobenzyl)-6-(6-((3-fluorooxetan-3-yl)methoxy)pyridin-3-yl)pyridazin-3(2H)-one] | < 10 |
| C[C@H]1Cc2cc(-c3ccc(=O)n(Cc4ccc(Cl)cc4)n3)ccc2O1 [Compound 110, (S)-2-(4-chlorobenzyl)-6-(2-methyl-2,3-dihydrobenzofuran-5-yl)pyridazin-3(2H)-one] | < 10 |
| O=c1ccc(-c2ccc(Cl)cc2)nn1Cc1ccc(F)cc1 [Compound 306, 6-(4-chlorophenyl)-2-(4-fluorobenzyl)pyridazin-3(2H)-one] | < 10 |
| O=c1ccc(-c2cnc(OCC3(F)COC3)nc2)nn1Cc1ccc(Cl)cc1 [Compound 22, 2-(4-chlorobenzyl)-6-(2-((3-fluorooxetan-3-yl)methoxy)pyrimidin-5-yl)pyridazin-3(2H)-one] | < 10 |
| C[C@@H]1Cc2cc(-c3ccc(=O)n(Cc4ccc(Cl)cc4)n3)ccc2O1 [Compound 111, (R)-2-(4-chlorobenzyl)-6-(2-methyl-2,3-dihydrobenzofuran-5-yl)pyridazin-3(2H)-one] | < 10 |
| CC1CCCN1c1ncc(-c2ccc(=O)n(Cc3ccc(F)cc3F)n2)cn1 (stereo not shown) [Compound 16, 2-(2,4-difluorobenzyl)-6-(2-(2-methylpyrrolidin-1-yl)pyrimidin-5-yl)pyridazin-3(2H)-one] | < 10 |
| CC(=O)Nc1ccc(-c2ccc(=O)n(Cc3ccc(Cl)cc3)n2)cc1 [Compound 107, N-(4-(1-(4-chlorobenzyl)-6-oxo-1,6-dihydropyridazin-3-yl)phenyl)acetamide] | < 10 |
| CC1(C)Cc2cc(-c3ccc(=O)n(Cc4ccc(Cl)cc4)n3)ccc2O1 [Compound 115, 2-(4-chlorobenzyl)-6-(2,2-dimethyl-2,3-dihydrobenzofuran-5-yl)pyridazin-3(2H)-one] | > 100 |
| O=c1ccc(-c2cnc(OCCOC(F)F)nc2)nn1Cc1ccc(Cl)cc1 [Compound 1, 2-(4-chlorobenzyl)-6-(2-(2-(difluoromethoxy)ethoxy)pyrimidin-5-yl)pyridazin-3(2H)-one] | < 10 |
| CNc1ncc(-c2ccc(=O)n(Cc3ccc(Cl)cc3)n2)cn1 [Compound 12, 2-(4-chlorobenzyl)-6-(2-(methylamino)pyrimidin-5-yl)pyridazin-3(2H)-one] | < 10 |
| CN(C)S(=O)(=O)c1ccc(-c2ccc(=O)n(Cc3ccc(Cl)cc3)n2)cc1 [Compound 120, 4-(1-(4-chlorobenzyl)-6-oxo-1,6-dihydropyridazin-3-yl)-N,N-dimethyl-benzenesulfonamide] | > 100 |
| O=C1Cc2cc(-c3ccc(=O)n(Cc4ccc(Cl)cc4)n3)ccc2N1 [Compound 122, 5-(1-(4-chlorobenzyl)-6-oxo-1,6-dihydropyridazin-3-yl)indolin-2-one] | > 100 |
| CN(C)S(=O)(=O)c1ccc(Cn2nc(-c3ccc(OC(F)F)cc3)ccc2=O)cc1 [Compound 118, 4-((3-(4-(difluoromethoxy)phenyl)-6-oxopyridazin-1(6H)-yl)methyl)-N,N-dimethyl-benzenesulfonamide] | > 100 |
| O=c1ccc(-c2cnc(OCC3COC3)nc2)nn1Cc1ccc(Cl)cc1 [Compound 33, 2-(4-chlorobenzyl)-6-(2-(oxetan-3-ylmethoxy)pyrimidin-5-yl)pyridazin-3(2H)-one] | < 10 |
| O=c1ccc(-c2cnc(OCC(F)(F)F)nc2)nn1Cc1c(F)cccc1F [Compound 41, 2-(2,6-difluorobenzyl)-6-(2-(2,2,2-trifluoroethoxy)pyrimidin-5-yl)pyridazin-3(2H)-one] | < 10 |
| O=c1ccc(-c2cnc(N3CC(C(F)(F)F)C3)nc2)nn1Cc1ccc(Cl)cc1 [Compound 4, 2-(4-chlorobenzyl)-6-(2-(3-(trifluoromethyl)azetidin-1-yl)pyrimidin-5-yl)pyridazin-3(2H)-one] | < 10 |
| O=c1ccc(-c2ccc(F)cc2)nn1Cc1cccc(C(F)(F)F)c1 [Compound 241, 6-(4-fluorophenyl)-2-(3-(trifluoromethyl)benzyl)pyridazin-3(2H)-one] | > 100 |
| O=C1CCCN1c1ncc(-c2ccc(=O)n(Cc3ccc(Cl)cc3)n2)cn1 [Compound 45, 2-(4-chlorobenzyl)-6-(2-(2-oxopyrrolidin-1-yl)pyrimidin-5-yl)pyridazin-3(2H)-one] | 10 to 100 |
| O=c1ccc(-c2cnc(N3CC4(C3)CC(F)(F)C4)nc2)nn1Cc1ccc(Cl)cc1 [Compound 14, 2-(4-chlorobenzyl)-6-(2-(6,6-difluoro-2-azaspiro[3.3]heptan-2-yl)pyrimidin-5-yl)pyridazin-3(2H)-one] | < 10 |
| O=c1ccc(-c2cnc(OCC3(F)COC3)nc2)nn1Cc1ccc(F)cc1F [Compound 24, 2-(2,4-difluorobenzyl)-6-(2-((3-fluorooxetan-3-yl)methoxy)pyrimidin-5-yl)pyridazin-3(2H)-one] | < 10 |
| O=c1ccc(-c2ccc(F)cc2)nn1Cc1cccc(F)c1 [Compound 242, 2-(3-fluorobenzyl)-6-(4-fluorophenyl)pyridazin-3(2H)-one] | < 10 |

Results, then the molecule that gave them:

| IC50 [µM] | SMILES |
| --- | --- |
| < 10 | O=c1ccc(-c2cnc(N3CC(OC(F)(F)F)C3)nc2)nn1Cc1ccc(Cl)cc1 [Compound 18, 2-(4-chlorobenzyl)-6-(2-(3-(trifluoromethoxy)azetidin-1-yl)pyrimidin-5-yl)pyridazin-3(2H)-one] |
| < 10 | O=c1ccc(-c2ccc(OC(F)(F)F)nc2)nn1Cc1ccc(Cl)cc1 [Compound 13, 2-(4-chlorobenzyl)-6-(6-(trifluoromethoxy)pyridin-3-yl)pyridazin-3(2H)-one] |
| < 10 | O=c1ccc(-c2cnc(N3CCCC3)nc2)nn1Cc1ccc(F)cc1F [Compound 23, 2-(2,4-difluorobenzyl)-6-(2-(pyrrolidin-1-yl)pyrimidin-5-yl)pyridazin-3(2H)-one] |
| < 10 | O=c1ccc(-c2ccc(Cl)cc2)nn1Cc1ccccc1 [Compound 302, 2-benzyl-6-(4-chlorophenyl)pyridazin-3(2H)-one] |
| < 10 | CC(=O)Nc1ncc(-c2ccc(=O)n(Cc3ccc(Cl)cc3)n2)cn1 [Compound 26, N-(5-(1-(4-chlorobenzyl)-6-oxo-1,6-dihydropyridazin-3-yl)pyrimidin-2-yl)acetamide] |
| < 10 | O=c1ccc(-c2cnc(OCC(F)(F)F)nc2)nn1Cc1ccccc1F [Compound 36, 2-(2-fluorobenzyl)-6-(2-(2,2,2-trifluoroethoxy)pyrimidin-5-yl)pyridazin-3(2H)-one] |
| < 10 | O=c1ccc(-c2cnc(OCC(F)(F)F)nc2)nn1Cc1ccc(Cl)cc1 [Compound 5, 2-(4-chlorobenzyl)-6-(2-(2,2,2-trifluoroethoxy)pyrimidin-5-yl)pyridazin-3(2H)-one] |
| < 10 | COc1ccc(-c2ccc(=O)n(Cc3ccc(Cl)cc3)n2)cc1 [Compound 212, 2-(4-chlorobenzyl)-6-(4-methoxyphenyl)pyridazin-3(2H)-one] |
| < 10 | O=c1ccc(-c2cnc(NC3CC3)nc2)nn1Cc1ccc(Cl)cc1 [Compound 8, 2-(4-chlorobenzyl)-6-(2-(cyclopropylamino)pyrimidin-5-yl)pyridazin-3(2H)-one] |
| < 10 | CCc1ccc(-c2ccc(=O)n(Cc3ccc(Cl)cc3)n2)cc1 [Compound 313, 2-(4-chlorobenzyl)-6-(4-ethylphenyl)pyridazin-3(2H)-one] |
